pIC50: −log10 of the molar value.

This assay concerns the target T1, human kinase Mps-1 (Homo sapiens, UniProt P33981).
T1 construct: N-terminally GST-tagged human full length recombinant Mps-1 kinase; purchased Invitrogen, Karslruhe, Germany PV4071
T1 sequence (P33981 1-857): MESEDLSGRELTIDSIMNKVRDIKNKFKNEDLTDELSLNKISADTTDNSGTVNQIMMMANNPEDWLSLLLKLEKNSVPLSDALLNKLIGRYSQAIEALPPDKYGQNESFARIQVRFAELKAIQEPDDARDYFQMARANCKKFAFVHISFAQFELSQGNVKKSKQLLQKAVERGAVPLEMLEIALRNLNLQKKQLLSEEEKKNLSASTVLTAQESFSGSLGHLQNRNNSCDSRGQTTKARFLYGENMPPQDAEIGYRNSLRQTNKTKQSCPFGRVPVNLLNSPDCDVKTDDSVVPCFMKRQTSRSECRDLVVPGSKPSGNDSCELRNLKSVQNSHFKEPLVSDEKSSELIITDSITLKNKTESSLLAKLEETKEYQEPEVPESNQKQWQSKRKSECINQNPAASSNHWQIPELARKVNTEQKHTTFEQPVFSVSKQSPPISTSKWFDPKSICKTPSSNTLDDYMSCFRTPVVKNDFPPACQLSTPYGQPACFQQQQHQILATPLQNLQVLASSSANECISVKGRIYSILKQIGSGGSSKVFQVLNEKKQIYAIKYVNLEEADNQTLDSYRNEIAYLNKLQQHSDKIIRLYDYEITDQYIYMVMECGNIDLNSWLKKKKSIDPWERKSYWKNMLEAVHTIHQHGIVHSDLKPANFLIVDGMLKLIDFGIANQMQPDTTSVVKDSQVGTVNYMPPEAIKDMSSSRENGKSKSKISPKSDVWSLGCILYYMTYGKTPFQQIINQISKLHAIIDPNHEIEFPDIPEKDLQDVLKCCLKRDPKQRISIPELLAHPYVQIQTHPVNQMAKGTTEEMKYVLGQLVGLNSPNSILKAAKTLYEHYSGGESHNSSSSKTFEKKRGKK
The experiment in a line: Mps-1 kinase assay (HTRF). In kind it is biochemical. The note with it: lowATP; mean; read-out: Mps1 lowATP mean IC50. Put shortly: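 HTRF readout: EDTA-stopped reactions incubated 1 h with europium anti-phospho(Ser/Thr) antibody and streptavidin-XLent, emission ratio 665/620 nm after 350 nm excitation. Kinase step: compound pre-bound 15 min to ~1 nM GST-Mps-1, then 60 min at 22 °C with ATP and biotin-peptide substrate; inhibition scaled between no-inhibitor (0%) and no-enzyme (100%) controls.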
For the compound `CNC(=O)Nc1ccc(-c2cnc3c(NCCNC(C)=O)nc4cc(F)c(F)cc4n23)cc1` [Example 2-118, N-{2-[(7,8-difluoro-1-{4-[(methylcarbamoyl)amino]phenyl}imidazo[1,2-a]quinoxalin-4-yl)amino]ethyl}acetamide], the pIC50 is 4.90.
Then `CNC(=O)Nc1ccc(-c2cnc3c(NCCCn4ccnc4)nc4cc(F)c(F)cc4n23)cc1` [Example 2-119, 1-[4-(7,8-difluoro-4-{[3-(1H-imidazol-1-yl)propyl]amino}imidazo[1,2-a]quinoxalin-1-yl)phenyl]-3-methylurea], with 5.15.
Regarding `CNC(=O)Nc1ccc(-c2cnc3c(NCC4CC4)nc4cc(F)c(F)cc4n23)cc1` [Example 2-120, 1-(4-{4-[(cyclopropylmethyl)amino]-7,8-difluoroimidazo[1,2-a]quinoxalin-1-yl}phenyl)-3-methylurea], the negative logarithm of the IC50 (pIC50) is 5.23.
Then `CNC(=O)Nc1ccc(-c2cnc3c(NCc4ccccn4)nc4cc(F)c(F)cc4n23)cc1` [Example 2-121, 1-(4-{7,8-difluoro-4-[(pyridin-2-ylmethyl)amino]imidazo[1,2-a]quinoxalin-1-yl}phenyl)-3-methylurea], with 5.17; and `CNC(=O)Nc1ccc(-c2cnc3c(NCc4cccnc4)nc4cc(F)c(F)cc4n23)cc1` [Example 2-122, 1-(4-{7,8-difluoro-4-[(pyridin-3-ylmethyl)amino]imidazo[1,2-a]quinoxalin-1-yl}phenyl)-3-methylurea], with 5.39; and `CNC(=O)Nc1ccc(-c2cnc3c(NCc4ccncc4)nc4cc(F)c(F)cc4n23)cc1` [Example 2-123, 1-(4-{7,8-difluoro-4-[(pyridin-4-ylmethyl)amino]imidazo[1,2-a]quinoxalin-1-yl}phenyl)-3-methylurea], with 5.45.
As for `CCCNc1nc2cc(F)c(F)cc2n2c(-c3ccc(C(=O)NC4CC4)c(Cl)c3)cnc12` [Example 2-124, 2-chloro-N-cyclopropyl-4-[7,8-difluoro-4-(propylamino)imidazo[1,2-a]quinoxalin-1-yl]benzamide], the pIC50 was 6.50.
Turning to `O=C(NC1CC1)c1ccc(-c2cnc3c(NCCCN4CCCC4=O)nc4cc(F)c(F)cc4n23)cc1Cl` [Example 2-125, 2-chloro-N-cyclopropyl-4-(7,8-difluoro-4-{[3-(2-oxopyrrolidin-1-yl)propyl]amino}imidazo[1,2-a]quinoxalin-1-yl)benzamide], the pIC50 was 5.02.
Then `COCCNc1nc2cc(F)c(F)cc2n2c(-c3ccc(C(=O)NC4CC4)c(Cl)c3)cnc12` [Example 2-126, 2-chloro-N-cyclopropyl-4-{7,8-difluoro-4-[(2-methoxyethyl)amino]imidazo[1,2-a]quinoxalin-1-yl}benzamide], with 5.31; and `O=C(NC1CC1)c1ccc(-c2cnc3c(NCc4ccccc4F)nc4cc(F)c(F)cc4n23)cc1Cl` [Example 2-127, 2-chloro-N-cyclopropyl-4-{7,8-difluoro-4-[(2-fluorobenzyl)amino]imidazo[1,2-a]quinoxalin-1-yl}benzamide], with 5.42.
For the compound `O=C(NC1CC1)c1ccc(-c2cnc3c(NCc4ccc(F)cc4)nc4cc(F)c(F)cc4n23)cc1Cl` [Example 2-128, 2-chloro-N-cyclopropyl-4-{7,8-difluoro-4-[(4-fluorobenzyl)amino]imidazo[1,2-a]quinoxalin-1-yl}benzamide], the negative logarithm of the IC50 (pIC50) was 4.76.
For `O=C(NC1CC1)c1ccc(-c2cnc3c(NCCCCO)nc4cc(F)c(F)cc4n23)cc1Cl` [Example 2-129, 2-chloro-N-cyclopropyl-4-{7,8-difluoro-4-[(4-hydroxybutyl)amino]imidazo[1,2-a]quinoxalin-1-yl}benzamide], the negative logarithm of the IC50 (pIC50) is 5.64.
For the compound `O=C(NC1CC1)c1ccc(-c2cnc3c(NCCCO)nc4cc(F)c(F)cc4n23)cc1Cl` [Example 2-130, 2-chloro-N-cyclopropyl-4-{7,8-difluoro-4-[(3-hydroxypropyl)amino]imidazo[1,2-a]quinoxalin-1-yl}benzamide], the negative logarithm of the IC50 (pIC50) is 5.51.
Take `CCCCNc1nc2cc(F)c(F)cc2n2c(-c3ccc(C(=O)NC4CC4)c(Cl)c3)cnc12` [Example 2-131, 4-[4-(butylamino)-7,8-difluoroimidazo[1,2-a]quinoxalin-1-yl]-2-chloro-N-cyclopropylbenzamide]: the pIC50 is 5.43.
For `CC(=O)NCCNc1nc2cc(F)c(F)cc2n2c(-c3ccc(C(=O)NC4CC4)c(Cl)c3)cnc12` [Example 2-132, 4-(4-{[2-(acetylamino)ethyl]amino}-7,8-difluoroimidazo[1,2-a]quinoxalin-1-yl)-2-chloro-N-cyclopropylbenzamide], the negative-log IC50 (pIC50) was 5.11.
To `O=C(NC1CC1)c1ccc(-c2cnc3c(NCCCn4ccnc4)nc4cc(F)c(F)cc4n23)cc1Cl` [Example 2-133, 2-chloro-N-cyclopropyl-4-(7,8-difluoro-4-{[3-(1H-imidazol-1-yl)propyl]amino}imidazo[1,2-a]quinoxalin-1-yl)benzamide] belongs 5.48; to `O=C(NC1CC1)c1ccc(-c2cnc3c(NCc4ccccn4)nc4cc(F)c(F)cc4n23)cc1Cl` [Example 2-134, 2-chloro-N-cyclopropyl-4-{7,8-difluoro-4-[(pyridin-2-ylmethyl)amino]imidazo[1,2-a]quinoxalin-1-yl}benzamide], 5.17; to `O=C(NC1CC1)c1ccc(-c2cnc3c(NCc4cccnc4)nc4cc(F)c(F)cc4n23)cc1Cl` [Example 2-135, 2-chloro-N-cyclopropyl-4-{7,8-difluoro-4-[(pyridin-3-ylmethyl)amino]imidazo[1,2-a]quinoxalin-1-yl}benzamide], 5.80.
`O=C(NC1CC1)c1ccc(-c2cnc3c(NCc4ccncc4)nc4cc(F)c(F)cc4n23)cc1Cl` [Example 2-136, 2-chloro-N-cyclopropyl-4-{7,8-difluoro-4-[(pyridin-4-ylmethyl)amino]imidazo[1,2-a]quinoxalin-1-yl}benzamide]: the negative-log IC50 (pIC50) is 5.77.
Then `CC(C)CNc1nc2cc(F)c(F)cc2n2c(-c3ccc(C(=O)NC4CC4)c(Cl)c3)cnc12` [Example 2-137, 2-chloro-N-cyclopropyl-4-{7,8-difluoro-4-[(2-methylpropyl)amino]imidazo[1,2-a]quinoxalin-1-yl}benzamide], with 6.41; and `NC(=O)CCNc1nc2cc(F)c(F)cc2n2c(-c3ccc(C(=O)NC4CC4)c(Cl)c3)cnc12` [Example 2-138, 4-{4-[(3-amino-3-oxopropyl)amino]-7,8-difluoroimidazo[1,2-a]quinoxalin-1-yl}-2-chloro-N-cyclopropylbenzamide], with 4.95; and `COCCCNc1nc2cc(F)c(F)cc2n2c(-c3ccc(C(=O)NC4CC4)c(Cl)c3)cnc12` [Example 2-139, 2-chloro-N-cyclopropyl-4-{7,8-difluoro-4-[(3-methoxypropyl)amino]imidazo[1,2-a]quinoxalin-1-yl}benzamide], with 5.41.
As for `CC(C)(C)OC(=O)NCCCNc1nc2cc(F)c(F)cc2n2c(-c3ccc(C(=O)NC4CC4)c(Cl)c3)cnc12` [Example 2-140, tert-butyl [3-({1-[3-chloro-4-(cyclopropylcarbamoyl)phenyl]-7,8-difluoroimidazo[1,2-a]quinoxalin-4-yl}amino)propyl]carbamate], the negative-log IC50 (pIC50) is 5.47.
To `Cn1ccc(CNc2nc3cc(F)c(F)cc3n3c(-c4ccc(C(=O)NC5CC5)c(Cl)c4)cnc23)n1` [Example 2-141, 2-chloro-N-cyclopropyl-4-(7,8-difluoro-4-{[(1-methyl-1H-pyrazol-3-yl)methyl]amino}imidazo[1,2-a]quinoxalin-1-yl)benzamide] belongs 5.35.
Consider `Cn1cc(CNc2nc3cc(F)c(F)cc3n3c(-c4ccc(C(=O)NC5CC5)c(Cl)c4)cnc23)cn1` [Example 2-142, 2-chloro-N-cyclopropyl-4-(7,8-difluoro-4-{[(1-methyl-1H-pyrazol-4-yl)methyl]amino}imidazo[1,2-a]quinoxalin-1-yl)benzamide], for which the pIC50 is 5.64.
To `NS(=O)(=O)CCNc1nc2cc(F)c(F)cc2n2c(-c3ccc(C(=O)NC4CC4)c(Cl)c3)cnc12` [Example 2-143, 2-chloro-N-cyclopropyl-4-{7,8-difluoro-4-[(2-sulfamoylethyl)amino]imidazo[1,2-a]quinoxalin-1-yl}benzamide] belongs 5.91; to `CCCNc1nc2cc(C)c(C)cc2n2c(-c3ccc(C(=O)NC4CC4)cc3)cnc12` [Example 2-144, N-cyclopropyl-4-[7,8-dimethyl-4-(propylamino)imidazo[1,2-a]quinoxalin-1-yl]benzamide], 8.38.

For the origin of these results see patent US8729082B2, “Substituted imidazoquinoxalines” (Bayer Intellectual Property GmbH, priority 2009, dated 2014).
